Key:
[1] = Mouse pharmacokinetic study, intraperitoneal
B. anthracis (Sterne) = conditions: mice infected with a lethal dose of B. anthracis (Sterne); cited from earlier work
[2] = following a single dose, i.p., mice

## O=C([O-])[C@H](Cc1ccccc1)N1C(=O)/C(=C\c2ccc(-c3ccc(Cl)c(Cl)c3)o2)NC1=S.[Na+] [Compound 12-ES-Na]
[1]; Group 1, 25 mg/kg i.p., CD-1 female mice
  Cl: 2.33 mL/min/kg
[1]; Group 2, 50 mg/kg i.p., CD-1 female mice
  Cl: 1.67 mL/min/kg
[1]; Group 3, 100 mg/kg i.p., CD-1 female mice
  Cl: 0.917 mL/min/kg
[1]; dosage below 100 mg/kg, i.p., CD-1 female mice
  mortality and clinical observations: no mortality and no significant clinical observations
[1]; [2]
  AUC relative to the MIC: more than 200 fold
  time of concentration above MIC: more than 10 hours
[1]; rodent PK profile, i.p., mice
  clearance: ~ 100 mL/h/kg
B. anthracis (Sterne)
  prevention of mortality / block of infection: can effectively block Bacillus anthracis infection in mice

Source: paper PMC3890692 (ACS medicinal chemistry letters, 2013)
